From ChEMBL document CHEMBL1201862, “PubChem BioAssay data set” (2004)
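Each compound was tested at five concentrations against cells in 96-well plates for 48 hours. GI50 = concentration required for 50% inhibition of growth.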 Activity calls are given as the source filed them. Rule as the data show it: active = GI50 up to about 1.1 µM and inactive = higher.

Key:
Assay in all cases: NCI tumour cell line growth inhibition, 48 h
NCI-H522 = tested on: NCI-H522
SK-MEL-5 = tested on: SK-MEL-5
SW-620 = tested on: SW-620
SK-MEL-28 = tested on: SK-MEL-28
HOP-62 = tested on: HOP-62
RPMI-8226 = tested on: RPMI-8226
IGROV-1 = tested on: IGROV-1
HT-29 = tested on: HT-29
U-251 = tested on: U-251
NCI/ADR-RES = tested on: NCI/ADR-RES
BT-549 = tested on: BT-549
786-0 = tested on: 786-0
SN12C = tested on: SN12C
K562 = tested on: K562
OVCAR-8 = tested on: OVCAR-8
CAKI-1 = tested on: CAKI-1
COLO 205 = tested on: COLO 205
UO-31 = tested on: UO-31
MDA-MB-231 = tested on: MDA-MB-231

Measured: GI50

O=C1c2ccccc2-c2nc3ccc(O)cc3n21
inactive: NCI-H522 > 100 µM | SK-MEL-5 > 100 µM | SW-620 > 100 µM | SK-MEL-28 > 100 µM | HOP-62 > 100 µM | RPMI-8226 > 100 µM | IGROV-1 > 100 µM | HT-29 > 100 µM | U-251 > 100 µM | NCI/ADR-RES > 100 µM | BT-549 > 100 µM | 786-0 > 100 µM | SN12C > 100 µM | K562 > 100 µM | OVCAR-8 > 100 µM | CAKI-1 > 100 µM | COLO 205 > 100 µM | UO-31 > 100 µM

CC(=O)Oc1cc(OC(C)=O)c2c(C)cc(=O)oc2c1
inactive: MDA-MB-231 > 100 µM | SK-MEL-5 > 100 µM | SW-620 > 100 µM | SK-MEL-28 > 100 µM | HOP-62 > 100 µM | RPMI-8226 > 100 µM | IGROV-1 95.7 µM | HT-29 > 100 µM | U-251 > 100 µM | NCI/ADR-RES > 100 µM | 786-0 > 100 µM | SN12C > 100 µM | K562 > 100 µM | OVCAR-8 > 100 µM | COLO 205 > 100 µM | UO-31 67.3 µM

CCOC(=O)/C(Br)=C1/OC(=O)c2ccccc2-c2ccccc21.CCOC(=O)/C(Br)=C1\OC(=O)c2ccccc2-c2ccccc21
inactive: NCI-H522 15.8 µM | SK-MEL-5 17.5 µM | SW-620 16.1 µM | SK-MEL-28 18.6 µM | HOP-62 18.5 µM | RPMI-8226 8.97 µM | IGROV-1 18.6 µM | HT-29 11.3 µM | U-251 23.2 µM | 786-0 17.1 µM | SN12C 22.8 µM | K562 4.3 µM | OVCAR-8 23.1 µM | CAKI-1 16.4 µM | COLO 205 15.2 µM | UO-31 39.8 µM

CN(C)C(=O)OC(Cn1cncn1)c1ccc(Cl)cc1Cl (configuration not stated)
inactive: NCI-H522 53.5 µM | SK-MEL-5 > 100 µM | SW-620 > 100 µM | SK-MEL-28 > 100 µM | HOP-62 > 100 µM | RPMI-8226 > 100 µM | IGROV-1 > 100 µM | HT-29 > 100 µM | U-251 > 100 µM | 786-0 > 100 µM | SN12C > 100 µM | K562 > 100 µM | OVCAR-8 > 100 µM | CAKI-1 > 100 µM | COLO 205 > 100 µM | UO-31 > 100 µM

CC(=O)OCc1nc(C#N)c(N)o1
inactive: NCI-H522 > 100 µM | MDA-MB-231 > 100 µM | SK-MEL-5 > 100 µM | SW-620 > 100 µM | SK-MEL-28 > 100 µM | HOP-62 > 100 µM | RPMI-8226 > 100 µM | IGROV-1 > 100 µM | HT-29 > 100 µM | U-251 > 100 µM | BT-549 > 100 µM | 786-0 > 100 µM | SN12C > 100 µM | K562 > 100 µM | CAKI-1 > 100 µM | COLO 205 > 100 µM | UO-31 > 100 µM

CCCCNC(=NC#N)NCCCC
inactive: NCI-H522 > 100 µM | SK-MEL-5 > 100 µM | SW-620 21.3 µM | SK-MEL-28 > 100 µM | HOP-62 > 100 µM | RPMI-8226 > 100 µM | IGROV-1 > 100 µM | HT-29 > 100 µM | U-251 99.5 µM | 786-0 49.5 µM | SN12C > 100 µM | K562 > 100 µM | OVCAR-8 > 100 µM | CAKI-1 > 100 µM | COLO 205 38.2 µM | UO-31 > 100 µM

CC1(C)CC(=O)C(=CNC(=O)c2ccncc2)C(=O)C1
inactive: NCI-H522 > 100 µM | MDA-MB-231 > 100 µM | SK-MEL-5 > 100 µM | SW-620 > 100 µM | SK-MEL-28 > 100 µM | HOP-62 > 100 µM | IGROV-1 > 100 µM | HT-29 > 100 µM | U-251 > 100 µM | NCI/ADR-RES > 100 µM | BT-549 > 100 µM | 786-0 > 100 µM | SN12C > 100 µM | OVCAR-8 > 100 µM | CAKI-1 > 100 µM | COLO 205 > 100 µM | UO-31 > 100 µM

O=C(Cc1ccccc1)c1ccc2[nH]c(=O)oc2c1
inactive: MDA-MB-231 36.1 µM | SW-620 52.1 µM | SK-MEL-28 28.6 µM | HOP-62 90.6 µM | RPMI-8226 9.23 µM | IGROV-1 9.53 µM | HT-29 37.5 µM | U-251 16.8 µM | NCI/ADR-RES 18.4 µM | BT-549 48.6 µM | 786-0 87.3 µM | SN12C > 100 µM | K562 31 µM | OVCAR-8 23.2 µM | CAKI-1 59.6 µM | COLO 205 66.2 µM

COc1cccc(/C=C2/Sc3scc(-c4ccccc4)[n+]3C2=O)c1O
inactive: NCI-H522 18.8 µM | MDA-MB-231 23.5 µM | SK-MEL-5 14.4 µM | SW-620 18.1 µM | SK-MEL-28 17.3 µM | HOP-62 23.8 µM | IGROV-1 15.2 µM | HT-29 20.8 µM | U-251 19.6 µM | NCI/ADR-RES 17.7 µM | BT-549 21.7 µM | 786-0 15.2 µM | SN12C 17.9 µM | OVCAR-8 17.5 µM | CAKI-1 21.3 µM | COLO 205 31.8 µM | UO-31 13.3 µM

O=C1C(Cl)C(c2ccc(O)cc2)N1n1cnc2ccccc2c1=O (configuration not stated)
inactive: NCI-H522 16.6 µM | SK-MEL-5 52.8 µM | SW-620 22.5 µM | SK-MEL-28 26.7 µM | HOP-62 > 100 µM | RPMI-8226 19 µM | IGROV-1 > 57.5 µM | HT-29 29.4 µM | U-251 45.4 µM | 786-0 28.8 µM | SN12C 35.2 µM | K562 31.3 µM | OVCAR-8 16.1 µM | CAKI-1 31.5 µM | COLO 205 25.3 µM | UO-31 55.1 µM

NC(=O)N1N=C2c3ccccc3CC[C@@H]2C1c1ccccc1 (some centres not stated)
inactive: NCI-H522 61 µM | SK-MEL-5 88.7 µM | SW-620 > 100 µM | SK-MEL-28 > 100 µM | HOP-62 > 100 µM | RPMI-8226 63.2 µM | IGROV-1 > 100 µM | HT-29 > 100 µM | U-251 > 100 µM | 786-0 > 100 µM | SN12C > 100 µM | K562 61.4 µM | OVCAR-8 > 100 µM | CAKI-1 > 100 µM | COLO 205 > 100 µM | UO-31 > 100 µM

COc1ccc(/C=C/c2cc(OC)c(O[Si](C)(C)C(C)(C)C)c(OC)c2)cc1
inactive: NCI-H522 > 100 µM | SK-MEL-5 54.1 µM | SW-620 > 100 µM | SK-MEL-28 6.24 µM | HOP-62 > 100 µM | RPMI-8226 45 µM | IGROV-1 > 100 µM | HT-29 > 100 µM | U-251 98.6 µM | 786-0 > 100 µM | SN12C > 100 µM | K562 41.9 µM | OVCAR-8 > 100 µM | CAKI-1 > 100 µM | COLO 205 > 100 µM | UO-31 > 100 µM
